Results reported in US10730911B2, “Backbone-cyclized peptidomimetics with GLP-1R modulating activity” (POLYPHOR AG, priority 2015, dated 2020).
Where a SMILES comes first, the peptide text is derived from it. [ ]: non-standard residue; d: D form. Trp(5-OH) = N[C@@H](Cc1c[nH]c2ccc(O)cc12)C(=O)O; His(π-Bn) = N[C@@H](Cc1cncn1Cc1ccccc1)C(=O)O; Phe(4-CN) = N#Cc1ccc(C[C@H](N)C(=O)O)cc1; Phe(4-NH2) = Nc1ccc(C[C@H](N)C(=O)O)cc1; 4Pal = N[C@@H](Cc1ccncc1)C(=O)O; Ac6c = NC1(C(=O)O)CCCCC1; Dpg = CCCC(N)(CCC)C(=O)O

Target: T1, human glucagon-like peptide-1 receptor (GLP-1R) (Homo sapiens, UniProt P43220)
T1 construct: host or cells: CHO chAMPion cells
Assay: Human GLP-1 receptor cell-based assay (flash luminescence, Target Activation phase)
Details: CHO chAMPion cells stably co-expressing human GLP-1R, Photina and cAMP-activated calcium channel; agonist activity; normalization by forskolin at 10 μM; ^a) values from single experiment; read-out: EC50 (μM) Target Activation (TA)
From the text: CHO chAMPion cells (Axxam SpA; S. Corazza, Assay Drug Dev. Technol. 2009, 7, 304-307) stably co-expressing the human glucagon-like peptide-1 receptor (GLP-1R), the Ca^2+-sensitive photoprotein PHOTINA® (S. Bovolenta et al., J. Biomol. Screen. 2007, 12, 694-704) and a mutated cAMP-activated calcium ion channel (WO2004/083803 A2) were used to monitor GLP-1R signaling after stimulation with an agonist. Activation of the Gas-coupled GPCR GLP-1R was monitored by measuring the flash luminescence of the Ca^2+-sensitive photoprotein as reporter system with FLIPR^TETRA screening instrumentation (Molecular Devices) upgraded with an ICCD Camera (MDC). For data quality check and data analysis the Genedata SCREENER® software was used.
The reference agonist GLP-1 (glucagon-like peptide-1 amide fragment 7-36) and forskolin were purchased from Sigma (cat. G8147 and F6886, respectively) and prepared according to each ligand's specifications. All handling of ligands were done to ensure proper control throughout the experiments. The steps of the implemented workflow and data analysis are mainly as follows:
Stably transfected chAMPion cells are seeded 10000 c/w in 384 MTP in Dulbecco's MEM/nutrient mix F12 (BioWhittaker cat. BE04-687F/U1; 500 mL) supplemented with sodium pyruvate (BioWhittaker cat. BE13-115E; 5 mL of 100 mM solution), HEPES (BioWhittaker cat. BE17-737E; 6.5 mL of 1M solution), sodium bicarbonate (BioWhittaker cat. BE17-613E; 25 mL of 7.5% solution), fetal bovine serum (Euroclone cat. ECS 0180L; 50 mL), penicillin-streptomycin (BioWhittaker cat. DE17-602E; 5 mL of 100×solution), 1 mg/mL G418 (selection antibiotic for GLP-1R) and 200 μg/mL hygromycin in 25 μL/well for 24 hours. On the day of the experiment, plates are removed from the incubator, freed from the growth medium, equilibrated at room temperature for 1 h, loaded with 30 μl/well of Ca^2+ free Tyrode's buffer containing 20 μM coelentrazine and 500 μM IBMX, and incubated for 4 hours at room temperature.
All compounds were tested at 8 concentrations, starting from 50 μM in quadruplicate, intra-plate (dilution step 1:2.15) to determine EC50 values. After incubation, the volume in all the wells is flattened to 20 αL by aspiration with a CYBIO®-VARIO pipettor. First Injection (10 μL of test compounds in Ca^2+ free Tyrode's buffer, DMSO 0.5% v/v and BSA 0.01%; or 10 μL of reference compounds GLP-1 or forskolin in Ca′ free Tyrode's buffer, DMSO 0.5% v/v and BSA 0.01%) is performed by the FLIPR^TETRA and the kinetic response is optionally monitored over a period of 60 seconds. Incubation for 30 minutes at room temperature is followed by the Second Injection (Tyrode's buffer+10 mM CaCl2)) and the kinetic response is monitored over a period of 60 seconds.
The kinetic response is divided into two distinct phases: monitoring the kinetic response after the First Injection, termed Compound Addition (CA), and monitoring the kinetic response after the Second Injection of 10 mM CaCl2, termed Target Activation (TA). Agonist activity of compounds is evaluated in the Target Activation (TA) phase and it is based on normalization to TA activation by forskolin at 10 μM or GLP-1 at 3.16 nM (EC100)
A good correlation was observed between EC50, data normalized by forskolin and by GLP-1.

T1 sequence (P43220 24-463): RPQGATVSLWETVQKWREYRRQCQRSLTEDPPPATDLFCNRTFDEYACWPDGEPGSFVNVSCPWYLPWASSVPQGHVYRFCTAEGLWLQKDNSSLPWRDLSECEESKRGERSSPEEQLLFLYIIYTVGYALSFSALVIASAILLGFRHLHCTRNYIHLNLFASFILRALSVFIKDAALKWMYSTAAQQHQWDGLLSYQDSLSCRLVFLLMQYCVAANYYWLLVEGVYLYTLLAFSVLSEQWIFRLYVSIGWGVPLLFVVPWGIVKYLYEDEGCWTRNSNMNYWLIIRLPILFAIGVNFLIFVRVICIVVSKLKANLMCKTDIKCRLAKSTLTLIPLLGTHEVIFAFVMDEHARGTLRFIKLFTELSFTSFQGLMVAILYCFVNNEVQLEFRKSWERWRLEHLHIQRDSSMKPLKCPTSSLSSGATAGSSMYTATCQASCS

COc1ccc(C[C@@H]2NC(=O)[C@H](CCC(N)=O)NC(=O)[C@H](Cc3c[nH]c4ccccc34)NC(=O)[C@H](Cc3ccccc3)NC(=O)C3(CCCCC3)NC(=O)[C@H]3CCCN3C(=O)[C@H](CCCNC(=N)N)NC(=O)[C@H](CCC(=O)O)NC(=O)[C@H](Cc3c[nH]c4ccccc34)NC(=O)[C@H](C)NC2=O)cc1 [compound 23, cyclo(-Phe-Trp-Gln-Tyr(Me)-Ala-Trp-Glu-Arg-^DPro-Chx-)] (cyclo(FWQY(Me)AWER[dP][Ac6c]))
EC50: 0.67 ± 0.22 µM

C[C@@H]1NC(=O)[C@H](Cc2ccc(O)cc2)NC(=O)[C@H](CCC(N)=O)NC(=O)[C@H](Cc2c[nH]c3ccccc23)NC(=O)[C@H](Cc2ccccc2)NC(=O)C2(CCCCC2)NC(=O)[C@H]2CCCN2C(=O)[C@H](Cc2ccccc2)NC(=O)[C@H](CCC(=O)O)NC(=O)[C@H](Cc2c[nH]c3ccccc23)NC1=O [compound 24, cyclo(-Phe-Trp-Gln-Tyr-Ala-Trp-Glu-Phe-^DPro-Chx-)] (cyclo(FWQYAWEF[dP][Ac6c]))
EC50: 0.89 ± 0.51 µM

CC(C)C[C@@H]1NC(=O)[C@H](CCC(=O)O)NC(=O)[C@H](Cc2ccccc2)NC(=O)C2(CCCCC2)NC(=O)[C@H]2CCCN2C(=O)[C@H](Cc2c[nH]c3ccc(O)cc23)NC(=O)[C@H](CCC(=O)O)NC(=O)[C@H](Cc2c[nH]c3ccccc23)NC(=O)[C@H](C)NC(=O)[C@H](Cc2ccc(O)cc2)NC1=O [compound 25, cyclo(-Phe-Glu-Leu-Tyr-Ala-Trp-Glu-Trp(5OH)-^DPro-Chx-)] (cyclo(FELYAWE[Trp(5-OH)][dP][Ac6c]))
EC50: 0.94 ± 0.68 µM

CCCC1(CCC)NC(=O)[C@H]2CCCN2C(=O)[C@H](Cc2ccccc2)NC(=O)[C@H](CCC(=O)O)NC(=O)[C@H](Cc2c[nH]c3ccccc23)NC(=O)[C@H](C)NC(=O)[C@H](CC(C)C)NC(=O)[C@H](CC(C)C)NC(=O)[C@H](CCC(=O)O)NC(=O)[C@H](Cc2ccccc2)NC1=O [compound 26, cyclo(-Phe-Glu-Leu-Leu-Ala-Trp-Glu-Phe-^DPro-Dpg-)] (cyclo(FELLAWEF[dP][Dpg]))
EC50: 1 ± 0.5 µM

C[C@@H]1NC(=O)[C@H](Cc2ccccc2)NC(=O)[C@H](CCC(N)=O)NC(=O)[C@H](Cc2c[nH]c3ccccc23)NC(=O)[C@H](Cc2ccccc2)NC(=O)C2(CCCCC2)NC(=O)[C@H]2CCCN2C(=O)[C@H](Cc2ccc(O)cc2)NC(=O)[C@H](CCC(=O)O)NC(=O)[C@H](Cc2c[nH]c3ccccc23)NC1=O [compound 27, cyclo(-Phe-Trp-Gln-Phe-Ala-Trp-Glu-Tyr-^DPro-Chx-)] (cyclo(FWQFAWEY[dP][Ac6c]))
EC50: 0.58 µM

CC(C)C[C@@H]1NC(=O)[C@H](CCC(=O)O)NC(=O)[C@H](Cc2ccccc2)NC(=O)C2(CCCCC2)NC(=O)[C@H]2CCCN2C(=O)[C@H](Cc2ccc(O)cc2)NC(=O)[C@H](Cc2c[nH]c3ccc(O)cc23)NC(=O)[C@H](Cc2c[nH]c3ccccc23)NC(=O)[C@H](C)NC(=O)[C@H](Cc2ccc(O)cc2)NC1=O [compound 28, cyclo(-Phe-Glu-Leu-Tyr-Ala-Trp-Trp(5OH)-Tyr-^DPro-Chx-)] (cyclo(FELYAW[Trp(5-OH)]Y[dP][Ac6c]))
EC50: 1.2 ± 0.9 µM

COc1ccc(C[C@@H]2NC(=O)[C@H](CC(C)C)NC(=O)[C@H](CCC(=O)O)NC(=O)[C@H](Cc3ccccc3)NC(=O)C3(CCCCC3)NC(=O)[C@H]3CCCN3C(=O)[C@H](Cc3ccc(O)cc3)NC(=O)[C@H](CCC(=O)O)NC(=O)[C@H](Cc3c[nH]c4ccccc34)NC(=O)[C@H](C)NC2=O)cc1 [compound 29, cyclo(-Phe-Glu-Leu-Tyr(Me)-Ala-Trp-Glu-Tyr-^DPro-Chx-)] (cyclo(FELY(Me)AWEY[dP][Ac6c]))
EC50: 0.62 µM

C[C@@H]1NC(=O)[C@H](Cc2ccc(O)cc2)NC(=O)[C@H](CCC(N)=O)NC(=O)[C@H](Cc2c[nH]c3ccccc23)NC(=O)[C@H](Cc2ccccc2)NC(=O)C2(CCCCC2)NC(=O)[C@H]2CCCN2C(=O)[C@H](Cc2ccc(N)cc2)NC(=O)[C@H](CCC(=O)O)NC(=O)[C@H](Cc2c[nH]c3ccccc23)NC1=O [compound 30, cyclo(-Phe-Trp-Gln-Tyr-Ala-Trp-Glu-Phe(4NH2)-^DPro-Chx-)] (cyclo(FWQYAWE[Phe(4-NH2)][dP][Ac6c]))
EC50: 0.63 µM

CC(C)C[C@@H]1NC(=O)[C@H](CCC(=O)O)NC(=O)[C@H](Cc2ccccc2)NC(=O)C2(CCCCC2)NC(=O)[C@H]2CCCN2C(=O)[C@H](Cc2ccccc2)NC(=O)[C@H](CCC(=O)O)NC(=O)[C@H](Cc2c[nH]c3ccccc23)NC(=O)[C@H](C)NC(=O)[C@H](Cc2ccc(O)cc2)NC1=O [compound 31, cyclo(-Phe-Glu-Leu-Tyr-Ala-Trp-Glu-Phe-^DPro-Chx-)] (cyclo(FELYAWEF[dP][Ac6c]))
EC50: 0.68 µM

COc1ccc(C[C@@H]2NC(=O)[C@H](Cc3ccccc3)NC(=O)C3(CCCCC3)NC(=O)[C@H]3CCCN3C(=O)[C@H](Cc3ccc(O)cc3)NC(=O)[C@H](CCC(=O)O)NC(=O)[C@H](Cc3c[nH]c4ccccc34)NC(=O)[C@H](C)NC(=O)[C@H](Cc3ccc(O)cc3)NC(=O)[C@H](CCC(N)=O)NC2=O)cc1 [compound 32, cyclo(-Phe-Tyr(Me)-Gln-Tyr-Ala-Trp-Glu-Tyr-^DPro-Chx-)] (cyclo(FY(Me)QYAWEY[dP][Ac6c]))
EC50: 0.92 ± 0.31 µM

C[C@@H]1NC(=O)[C@H](Cc2ccc(O)cc2)NC(=O)[C@H](CCC(N)=O)NC(=O)[C@H](Cc2ccncc2)NC(=O)[C@H](Cc2ccccc2)NC(=O)C2(CCCCC2)NC(=O)[C@H]2CCCN2C(=O)[C@H](Cc2ccc(O)cc2)NC(=O)[C@H](CCC(=O)O)NC(=O)[C@H](Cc2c[nH]c3ccccc23)NC1=O [compound 33, cyclo(-Phe-4Pal-Gln-Tyr-Ala-Trp-Glu-Tyr-^DPro-Chx-)] (cyclo(F[4Pal]QYAWEY[dP][Ac6c]))
EC50: 0.99 ± 0.37 µM

COc1ccc(C[C@@H]2NC(=O)[C@H](CC(C)C)NC(=O)[C@H](CCC(=O)O)NC(=O)[C@H](Cc3ccccc3)NC(=O)C3(CCCCC3)NC(=O)[C@H]3CCCN3C(=O)[C@H](Cc3ccc(OC)cc3)NC(=O)[C@H](CCC(=O)O)NC(=O)[C@H](Cc3c[nH]c4ccccc34)NC(=O)[C@H](C)NC2=O)cc1 [compound 34, cyclo(-Phe-Glu-Leu-Tyr(Me)-Ala-Trp-Glu-Tyr(Me)-^DPro-Chx-)] (cyclo(FELY(Me)AWEY(Me)[dP][Ac6c]))
EC50: 0.73 µM

C[C@@H]1NC(=O)[C@H](Cc2ccc(O)cc2)NC(=O)[C@H](CCC(N)=O)NC(=O)[C@H](Cc2c[nH]c3ccc(O)cc23)NC(=O)[C@H](Cc2ccccc2)NC(=O)C2(CCCCC2)NC(=O)[C@H]2CCCN2C(=O)[C@H](Cc2ccc(O)cc2)NC(=O)[C@H](CCC(=O)O)NC(=O)[C@H](Cc2c[nH]c3ccccc23)NC1=O [compound 35, cyclo(-Phe-Trp(5OH)-Gln-Tyr-Ala-Trp-Glu-Tyr-^DPro-Chx-)] (cyclo(F[Trp(5-OH)]QYAWEY[dP][Ac6c]))
EC50: 1.1 ± 0.5 µM

CC(C)C[C@@H]1NC(=O)[C@H](CCC(=O)O)NC(=O)[C@H](Cc2ccccc2)NC(=O)C2(CCCCC2)NC(=O)[C@H]2CCCN2C(=O)[C@H](Cc2cncn2Cc2ccccc2)NC(=O)[C@H](CCC(=O)O)NC(=O)[C@H](Cc2c[nH]c3ccccc23)NC(=O)[C@H](C)NC(=O)[C@H](Cc2ccc(O)cc2)NC1=O [compound 36, cyclo(-Phe-Glu-Leu-Tyr-Ala-Trp-Glu-His(Bn)-^DPro-Chx-)] (cyclo(FELYAWE[His(π-Bn)][dP][Ac6c]))
EC50: 0.85 µM

CC(C)C[C@@H]1NC(=O)[C@H](CCC(=O)O)NC(=O)[C@H](Cc2ccccc2)NC(=O)C2(CCCCC2)NC(=O)[C@H]2CCCN2C(=O)[C@H](Cc2ccc(O)cc2)NC(=O)[C@H](CCC(=O)O)NC(=O)[C@H](Cc2c[nH]c3ccccc23)NC(=O)[C@H](C)NC(=O)[C@H](Cc2ccc(C#N)cc2)NC1=O [compound 37, cyclo(-Phe-Glu-Leu-Phe(4CN)-Ala-Trp-Glu-Tyr-^DPro-Chx-)] (cyclo(FEL[Phe(4-CN)]AWEY[dP][Ac6c]))
EC50: 0.88 µM
